Holding throughout (assay type): biochemical
The target in assay [1] is T1, JAK3 (Homo sapiens, UniProt P52333).
T1 construct: purchased Invitrogen
T1 sequence (P52333 1-1124): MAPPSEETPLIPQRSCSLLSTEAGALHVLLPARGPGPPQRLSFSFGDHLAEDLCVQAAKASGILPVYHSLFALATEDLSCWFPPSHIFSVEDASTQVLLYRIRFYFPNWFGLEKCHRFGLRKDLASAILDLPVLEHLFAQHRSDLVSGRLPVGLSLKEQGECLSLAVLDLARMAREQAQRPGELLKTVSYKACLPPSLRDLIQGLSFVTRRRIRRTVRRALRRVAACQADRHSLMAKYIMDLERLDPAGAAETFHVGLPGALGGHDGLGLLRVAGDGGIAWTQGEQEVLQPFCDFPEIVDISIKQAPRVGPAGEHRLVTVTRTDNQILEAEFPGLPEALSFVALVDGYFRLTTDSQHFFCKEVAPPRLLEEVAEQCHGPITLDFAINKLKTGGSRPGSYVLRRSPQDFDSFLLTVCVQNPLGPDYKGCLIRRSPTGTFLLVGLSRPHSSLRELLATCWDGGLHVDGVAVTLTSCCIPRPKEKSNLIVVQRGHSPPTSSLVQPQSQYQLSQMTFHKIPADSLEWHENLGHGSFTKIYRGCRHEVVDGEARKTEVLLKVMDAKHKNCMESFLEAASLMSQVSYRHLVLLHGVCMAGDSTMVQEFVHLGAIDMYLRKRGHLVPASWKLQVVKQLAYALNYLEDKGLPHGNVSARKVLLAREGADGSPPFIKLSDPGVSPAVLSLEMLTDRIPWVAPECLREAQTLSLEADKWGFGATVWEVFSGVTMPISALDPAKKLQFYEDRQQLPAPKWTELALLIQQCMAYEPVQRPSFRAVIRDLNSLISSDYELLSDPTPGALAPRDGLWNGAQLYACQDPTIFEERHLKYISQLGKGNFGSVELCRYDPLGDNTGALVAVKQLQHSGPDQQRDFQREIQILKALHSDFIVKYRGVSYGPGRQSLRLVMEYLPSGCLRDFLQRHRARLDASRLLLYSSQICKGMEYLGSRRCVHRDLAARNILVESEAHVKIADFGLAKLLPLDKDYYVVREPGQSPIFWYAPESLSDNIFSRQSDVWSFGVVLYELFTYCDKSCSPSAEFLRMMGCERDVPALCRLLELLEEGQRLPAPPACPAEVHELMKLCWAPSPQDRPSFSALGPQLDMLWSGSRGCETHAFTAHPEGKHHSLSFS
In words: JAK3 enzyme inhibition test (LANCE method). The settings on record: 1 μM test compound; read-out: JAK3 enzyme inhibitory activity (%, 1 μM). An outline of the steps:
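Recombinant JAK3 (12 ng/mL solution) with ULight-JAK1 peptide (300 nM solution) and ATP (15 μM solution) in HEPES pH 7.5 buffer, 1 h at room temperature. EDTA stop with Eu-anti-phosphotyrosine antibody; TR-FRET at 665 nm. Inhibition relative to enzyme-free wells as 100%.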
(Time-resolved FRET reads energy transfer from a long-lived donor to a nearby acceptor.)

For assay [2], the target named is T2, JAK1 (Homo sapiens, UniProt P23458).
T2 construct: purchased Invitrogen
In words: JAK1 enzyme inhibition test (LANCE method). The conditions noted are these: 1 μM test compound; for inhibition at 1 µM: read-out: JAK1 enzyme inhibitory activity (%, 1 μM). An outline of the steps: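 TR-FRET (LANCE) with ULight-JAK1 peptide (300 nM working solution) and ATP (150 μM working solution) in HEPES pH 7.5, MgCl2, EGTA, DTT buffer; 1 h at room temperature. EDTA stop plus Eu-anti-phosphotyrosine antibody, 665 nm read after 1 h. Inhibition relative to enzyme-free wells as 100%.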

For assay [3], the target named is T3, TYK2 (Homo sapiens, UniProt P29597).
T3 construct: purchased Invitrogen
In words: TYK2 enzyme inhibition test (LANCE method). The conditions noted are these: 1 μM test compound; read-out: TYK2 enzyme inhibitory activity (%, 1 μM). Summed up:
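Recombinant TYK2 (375 ng/mL working solution) with ULight-JAK1 peptide (300 nM working solution) and ATP (30 μM working solution) in HEPES pH 7.5 buffer with MgCl2, EGTA, DTT, Tween20, BSA, reacted 1 h at RT. EDTA-stopped, Eu-anti-phosphotyrosine TR-FRET read at 665 nm; inhibition relative to enzyme-free wells as 100%.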

In assay [4] the target is T4, JAK2 (Homo sapiens, UniProt O60674).
T4 construct: purchased Invitrogen
In words: JAK2 enzyme inhibition test (LANCE method). The conditions noted are these: 1 μM test compound; read-out: JAK2 enzyme inhibitory activity (%, 1 μM). Summed up:
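Recombinant JAK2 (6 ng/mL solution) phosphorylated ULight-JAK1 peptide (300 nM solution) with ATP (45 μM solution) in pH 7.5 HEPES/MgCl2/DTT buffer for 1 hr at room temperature. After EDTA stop and europium anti-phosphotyrosine antibody for 1 hr, TR-FRET read at 665 nm; inhibition relative to enzyme-free wells as 100%.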

Results on 14 compounds are retold here after patent US9637483B2, “Heterocyclic compound” (TAKEDA PHARMACEUTICAL COMPANY LIMITED, priority 2013, dated 2017).

The structures appear in SMILES notation.

T3 sequence (P29597 whole entry): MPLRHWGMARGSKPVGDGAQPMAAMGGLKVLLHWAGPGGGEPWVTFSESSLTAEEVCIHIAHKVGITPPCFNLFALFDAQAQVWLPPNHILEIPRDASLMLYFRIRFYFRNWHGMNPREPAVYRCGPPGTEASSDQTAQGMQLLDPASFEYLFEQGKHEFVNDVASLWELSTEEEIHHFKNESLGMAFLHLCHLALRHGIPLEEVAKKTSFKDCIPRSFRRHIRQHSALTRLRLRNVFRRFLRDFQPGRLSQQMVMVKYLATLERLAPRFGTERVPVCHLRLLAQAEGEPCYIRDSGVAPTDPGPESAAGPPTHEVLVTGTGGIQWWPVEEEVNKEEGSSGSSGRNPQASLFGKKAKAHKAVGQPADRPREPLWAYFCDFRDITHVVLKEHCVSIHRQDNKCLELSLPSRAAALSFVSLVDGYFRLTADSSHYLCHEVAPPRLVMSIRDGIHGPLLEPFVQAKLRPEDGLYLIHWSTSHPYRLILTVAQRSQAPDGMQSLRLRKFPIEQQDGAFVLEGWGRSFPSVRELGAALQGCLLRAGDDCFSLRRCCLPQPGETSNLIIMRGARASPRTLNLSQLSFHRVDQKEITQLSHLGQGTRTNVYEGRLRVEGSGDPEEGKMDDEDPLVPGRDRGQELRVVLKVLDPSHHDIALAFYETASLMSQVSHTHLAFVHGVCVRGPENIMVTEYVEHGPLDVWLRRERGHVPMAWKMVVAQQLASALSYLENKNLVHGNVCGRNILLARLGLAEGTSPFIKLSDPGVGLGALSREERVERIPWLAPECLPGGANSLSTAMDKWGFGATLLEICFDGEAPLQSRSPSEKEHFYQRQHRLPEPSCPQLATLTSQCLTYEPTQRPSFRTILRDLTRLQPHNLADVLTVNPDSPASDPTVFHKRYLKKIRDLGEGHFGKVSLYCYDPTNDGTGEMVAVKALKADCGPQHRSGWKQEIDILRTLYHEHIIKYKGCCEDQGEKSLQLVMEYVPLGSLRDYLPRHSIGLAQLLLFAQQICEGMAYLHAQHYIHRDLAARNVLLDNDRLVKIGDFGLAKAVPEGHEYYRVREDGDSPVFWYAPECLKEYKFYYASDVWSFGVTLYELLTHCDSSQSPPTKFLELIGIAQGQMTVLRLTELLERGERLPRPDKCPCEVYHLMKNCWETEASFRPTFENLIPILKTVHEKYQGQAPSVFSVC
T4 sequence (O60674 whole entry): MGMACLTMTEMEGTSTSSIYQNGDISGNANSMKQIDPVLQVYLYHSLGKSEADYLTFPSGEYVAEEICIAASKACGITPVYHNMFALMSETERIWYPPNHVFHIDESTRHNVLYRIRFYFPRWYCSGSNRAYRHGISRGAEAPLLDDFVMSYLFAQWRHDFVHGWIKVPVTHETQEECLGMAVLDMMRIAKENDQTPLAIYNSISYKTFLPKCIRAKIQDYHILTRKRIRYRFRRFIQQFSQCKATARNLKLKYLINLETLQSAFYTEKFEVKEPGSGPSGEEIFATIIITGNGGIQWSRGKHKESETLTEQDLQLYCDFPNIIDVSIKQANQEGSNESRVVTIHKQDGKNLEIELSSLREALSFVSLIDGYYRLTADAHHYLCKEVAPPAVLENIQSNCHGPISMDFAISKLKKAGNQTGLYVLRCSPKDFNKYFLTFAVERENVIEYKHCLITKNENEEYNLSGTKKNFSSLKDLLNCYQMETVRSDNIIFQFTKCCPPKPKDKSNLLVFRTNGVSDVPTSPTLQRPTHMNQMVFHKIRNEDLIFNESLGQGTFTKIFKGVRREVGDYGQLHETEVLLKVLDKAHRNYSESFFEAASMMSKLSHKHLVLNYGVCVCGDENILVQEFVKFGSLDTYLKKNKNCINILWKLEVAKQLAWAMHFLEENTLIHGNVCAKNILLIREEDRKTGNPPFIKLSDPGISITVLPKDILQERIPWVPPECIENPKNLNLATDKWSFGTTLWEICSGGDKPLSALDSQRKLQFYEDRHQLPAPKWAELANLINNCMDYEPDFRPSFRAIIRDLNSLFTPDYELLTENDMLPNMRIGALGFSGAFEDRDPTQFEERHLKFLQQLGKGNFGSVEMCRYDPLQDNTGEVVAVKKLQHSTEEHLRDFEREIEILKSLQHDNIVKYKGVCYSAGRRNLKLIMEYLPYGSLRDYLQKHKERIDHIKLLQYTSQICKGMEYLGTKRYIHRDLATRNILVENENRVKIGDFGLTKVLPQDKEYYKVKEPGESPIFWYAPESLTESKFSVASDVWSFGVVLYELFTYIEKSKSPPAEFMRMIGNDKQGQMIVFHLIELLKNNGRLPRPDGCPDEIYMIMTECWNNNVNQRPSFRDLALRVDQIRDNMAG
T2 sequence (P23458 whole entry): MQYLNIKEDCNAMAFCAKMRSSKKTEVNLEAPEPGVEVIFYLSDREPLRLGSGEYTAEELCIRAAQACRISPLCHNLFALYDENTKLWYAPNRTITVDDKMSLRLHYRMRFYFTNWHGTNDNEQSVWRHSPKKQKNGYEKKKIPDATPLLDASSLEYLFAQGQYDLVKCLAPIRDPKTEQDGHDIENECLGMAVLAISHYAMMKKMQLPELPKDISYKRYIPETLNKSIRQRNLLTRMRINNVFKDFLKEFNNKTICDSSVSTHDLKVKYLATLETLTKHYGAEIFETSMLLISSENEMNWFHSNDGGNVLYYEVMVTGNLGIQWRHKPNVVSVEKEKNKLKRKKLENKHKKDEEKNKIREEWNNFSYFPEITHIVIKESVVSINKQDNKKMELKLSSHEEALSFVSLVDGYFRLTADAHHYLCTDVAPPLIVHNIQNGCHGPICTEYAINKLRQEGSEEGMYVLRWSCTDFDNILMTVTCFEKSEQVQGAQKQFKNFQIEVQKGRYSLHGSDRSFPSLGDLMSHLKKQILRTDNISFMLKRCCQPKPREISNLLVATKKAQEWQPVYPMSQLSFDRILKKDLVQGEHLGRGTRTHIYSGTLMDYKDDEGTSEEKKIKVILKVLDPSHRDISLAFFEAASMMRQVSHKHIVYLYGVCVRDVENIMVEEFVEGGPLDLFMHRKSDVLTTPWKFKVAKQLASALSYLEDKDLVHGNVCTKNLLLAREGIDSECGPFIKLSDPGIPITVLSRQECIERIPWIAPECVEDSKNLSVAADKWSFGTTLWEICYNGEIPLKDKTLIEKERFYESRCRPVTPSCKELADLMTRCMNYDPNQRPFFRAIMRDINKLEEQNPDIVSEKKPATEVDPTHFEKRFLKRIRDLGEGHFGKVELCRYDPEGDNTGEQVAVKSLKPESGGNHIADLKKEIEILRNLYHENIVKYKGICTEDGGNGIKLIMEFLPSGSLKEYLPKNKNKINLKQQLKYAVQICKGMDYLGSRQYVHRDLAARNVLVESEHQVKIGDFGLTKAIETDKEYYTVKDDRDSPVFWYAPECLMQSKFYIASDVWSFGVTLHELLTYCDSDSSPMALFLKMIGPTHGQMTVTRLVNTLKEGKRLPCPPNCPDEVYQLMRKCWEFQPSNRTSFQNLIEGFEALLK

On to `CC(C)[C@H](C)n1cc(-c2cc(C(C)(C)C(=O)N(C)C)n(C)n2)c2[nH]nc(N)c2c1=O` [Example 56, 2-(3-(3-amino-5-((2S)-3-methylbutan-2-yl)-4-oxo-4,5-dihydro-1H-pyrazolo[4,3-c]pyridin-7-yl)-1-methyl-1H-pyrazol-5-yl)-N,N,2-trimethylpropanamide], for which the inhibition at 1 µM was 94% in assay [1], 70% in assay [2], 98% in assay [3] and 94% in assay [4].
On to `CC(C)N1CCN(c2cc(-c3cn([C@@H](C)C4CC4)c(=O)c4c(N)n[nH]c34)nn2C)CC1=O` [Example 92, 3-amino-5-((1S)-1-cyclopropylethyl)-7-(5-(4-isopropyl-3-oxopiperazin-1-yl)-1-methyl-1H-pyrazol-3-yl)-1,5-dihydro-4H-pyrazolo[4,3-c]pyridin-4-one], for which the inhibition at 1 µM was determined as 99% in assay [1], 100% in assay [2], 99% in assay [3] and 100% in assay [4].
With `CC1CCCCC1n1cc(-c2cc(C(C)(C)O)n(C)n2)c2[nH]nc(N)c2c1=O` (centres unmarked) [Example 117, 3-amino-7-(5-(2-hydroxypropan-2-yl)-1-methyl-1H-pyrazol-3-yl)-5-(2-methylcyclohexyl)-1,5-dihydro-4H-pyrazolo[4,3-c]pyridin-4-one], the inhibition at 1 µM in assay [1] came out at 97%; in assay [2] it was 85%; in assay [3], 99%; in assay [4], 85%.
`CN(C[C@H]1CCCN1c1cc(-c2cn(C(C3CC3)C3CC3)c(=O)c3c(N)n[nH]c23)nn1C)S(C)(=O)=O` [Example 176, N-(((2R)-1-(3-(3-amino-5-(dicyclopropylmethyl)-4-oxo-4,5-dihydro-1H-pyrazolo[4,3-c]pyridin-7-yl)-1-methyl-1H-pyrazol-5-yl)pyrrolidin-2-yl)methyl)-N-methylmethanesulfonamide]: the inhibition at 1 µM in assay [1] came to 99%; in assay [2], 97%; in assay [3], 98%; in assay [4], 98%.
Turning to `COC(C)(C)c1cc(-c2cn(-c3c(F)cccc3C#N)c(=O)c3c(N)n[nH]c23)nn1C` [Example 121, 2-(3-amino-7-(5-(2-methoxypropan-2-yl)-1-methyl-1H-pyrazol-3-yl)-4-oxo-1,4-dihydro-5H-pyrazolo[4,3-c]pyridin-5-yl)-3-fluorobenzonitrile], the inhibition at 1 µM in assay [1] turned out to be 97%; in assay [2] it was 98%; in assay [3], 100%; in assay [4], 98%.
For `Cn1nc(-c2cn(C3CCCC3(C)C)c(=O)c3c(N)n[nH]c23)cc1CN1CCS(=O)(=O)CC1` (racemic) [Example 72, 3-amino-5-(2,2-dimethylcyclopentyl)-7-(5-((1,1-dioxidothiomorpholin-4-yl)methyl)-1-methyl-1H-pyrazol-3-yl)-1,5-dihydro-4H-pyrazolo[4,3-c]pyridin-4-one], the inhibition at 1 µM in assay [1] is 100%; in assay [2], 99%; in assay [3] it was 100%; in assay [4], 100%.
On to `CC(C)[C@H](C)n1cc(-c2cc(C3CC3)n(C)n2)c2[nH]nc(N)c2c1=O` [Example 43, 3-amino-7-(5-cyclopropyl-1-methyl-1H-pyrazol-3-yl)-5-((2S)-3-methylbutan-2-yl)-1,5-dihydro-4H-pyrazolo[4,3-c]pyridin-4-one], for which the inhibition at 1 µM came out at 99% in assay [1], 97% in assay [2], 100% in assay [3] and 97% in assay [4].
Take `COC[C@H]1CCCN1c1cc(-c2cn(-c3c(F)cccc3F)c(=O)c3c(N)n[nH]c23)nn1C` [Example 128, 3-amino-5-(2,6-difluorophenyl)-7-(5-((2R)-2-(methoxymethyl)pyrrolidin-1-yl)-1-methyl-1H-pyrazol-3-yl)-1,5-dihydro-4H-pyrazolo[4,3-c]pyridin-4-one]: the inhibition at 1 µM came to 99% in assay [1], 98% in assay [2], 100% in assay [3] and 98% in assay [4].
As to `C[C@H](C1CC1)n1cc(-c2cc(C(C)(C)O)n(C)n2)c2[nH]nc(N)c2c1=O` [Example 91, 3-amino-5-((1R)-1-cyclopropylethyl)-7-(5-(2-hydroxypropan-2-yl)-1-methyl-1H-pyrazol-3-yl)-1,5-dihydro-4H-pyrazolo[4,3-c]pyridin-4-one], the inhibition at 1 µM in assay [1] was found to be 97%; in assay [2], 96%; in assay [3], 99%; in assay [4] it was 88%.
Taken in the same sequence, the figures for `CC(C)[C@H](C)n1cc(-c2cc(N3CCS(=O)(=O)CC3)n(C)n2)c2[nH]nc(N)c2c1=O` [Example 12, 3-amino-7-(5-(1,1-dioxidothiomorpholin-4-yl)-1-methyl-1H-pyrazol-3-yl)-5-((2S)-3-methylbutan-2-yl)-1,5-dihydro-4H-pyrazolo[4,3-c]pyridin-4-one] were 99%, 93%, 100% and 99%.
As for `CC(C)[C@H](C)n1cc(-c2cc(N3CCN(S(C)(=O)=O)CC3)n(C)n2)c2[nH]nc(N)c2c1=O` [Example 108, 3-amino-5-((2S)-3-methylbutan-2-yl)-7-(1-methyl-5-(4-(methylsulfonyl)piperazin-1-yl)-1H-pyrazol-3-yl)-1,5-dihydro-4H-pyrazolo[4,3-c]pyridin-4-one], the inhibition at 1 µM in assay [1] was 99%; in assay [2], 98%; in assay [3] it was 100%; in assay [4], 98%.
As for `CC1CCCCC1n1cc(-c2cc(N3CCOCC3)n(C)n2)c2[nH]nc(N)c2c1=O` (centres unmarked) [Example 152, 3-amino-5-(2-methylcyclohexyl)-7-(1-methyl-5-(morpholin-4-yl)-1H-pyrazol-3-yl)-1,5-dihydro-4H-pyrazolo[4,3-c]pyridin-4-one], the inhibition at 1 µM is 101% in assay [1], 102% in assay [3] and 101% in assay [4]. Moreover, in assay [2] (1 µM), the “JAK1 enzyme inhibitory activity (%, 1 μM)” value is 100%.
Consider `COC1(c2cc(-c3cn(-c4c(F)cccc4F)c(=O)c4c(N)n[nH]c34)nn2C)CN(C(=O)C(C)C)C1` [Example 130, 3-amino-5-(2,6-difluorophenyl)-7-(5-(1-isobutyryl-3-methoxyazetidin-3-yl)-1-methyl-1H-pyrazol-3-yl)-1,5-dihydro-4H-pyrazolo[4,3-c]pyridin-4-one], for which the inhibition at 1 µM worked out at 99% in assay [1], 96% in assay [2], 101% in assay [3] and 98% in assay [4].
As to `COCCn1nc(-c2cn([C@@H](C)C(C)C)c(=O)c3c(N)n[nH]c23)cc1C(C)(C)O` [Example 36, 3-amino-7-(5-(2-hydroxypropan-2-yl)-1-(2-methoxyethyl)-1H-pyrazol-3-yl)-5-((2S)-3-methylbutan-2-yl)-1,5-dihydro-4H-pyrazolo[4,3-c]pyridin-4-one], the inhibition at 1 µM in assay [1] is 85%; in assay [2], 55%; in assay [3] it was 91%; in assay [4] it was 80%.
